The values that follow come from patent US10112928B2, “Inhibitors of SYK” (Hoffmann-La Roche Inc., priority 2012, dated 2018).

Experiment [1] has as its target recombinant human SYK360-635 (Spleen Tyrosine Kinase) (Homo sapiens (Human), UniProt P43405). Put plainly: SYK kinase assay (33P ATP incorporation into biotinylated peptide). It counts as biochemical. The following applies: purified truncated SYK aa 360-635, 20 μM ATP; read-out: Syk_IC50. Here is the method:
Determination of IC50 of Spleen Tyrosine Kinase (SYK) Inhibition:
SYK kinase assay is a standard kinase assay adapted to a 96 well plate format. This assay is performed in 96-well format for IC50 determination with […] which represented 10 half log dilutions and a 40 μL reaction volume. The assay measures the incorporation of radiolabeled ^33P γATP into an N-terminally biotinylated peptide substrate, derived from naturally occurring phosphoacceptor consensus sequence (Biotin-11aa DY*E). Phosphorylated products were detected upon termination of reactions with EDTA and the addition of Streptavidin coated beads.
final concentration: 50 mM HEPES pH7.5
BSA: Bovine Serum Albumin Fraction V, fatty acid free (Roche Diagnostics GmbH, Cat. No. 9100221) diluted to a final concentration of 0.1%
Assay Dilution Buffer (ADB): 50 mM HEPES, 0.1 mM EGTA, 0.1 mM Na Vanadate, 0.1 mM β-glycerophosphate, 10 mM MgCl2, 1 mM DTT, 0.1% BSA, pH 7.5
Bead wash buffer: 10 g/L PBS (Phosphate buffered saline) with 2M NaCl+1% phosphoric acid.
DMSO and the mixture was incubated for 10 min at RT.
The kinase reaction was initiated by the addition of 10 μL 4× substrate cocktail containing the DYE peptide substrate [0 or 5 μM], ATP [20 μM] and ^33PγATP [2 μCi/rxn]. After incubation at 30° C. for 15 min, the reaction was terminated by the transfer of […] pf the reaction sample to a 96 well 0.65 μm Millipore MADVNOB membrane/plate containing 200 μL 5 mM EDTA and 20% Streptavidine coated beads in PBS.
The unbound radionucleotides were washed under vacuum with 3×250 μL 2M NaCl; 2×250 μL 2M NaCl+1% phosphoric acid; 1×250 μL H2O. After the last wash membrane/plates were transferred to an adaptor plate, heat dried for 15 min at 60° C., and 50 μL scintillation cocktail was added to each well and 4 h later the amount of radioactivity was counted in a top counter.

Experiment [2] concerns CD69 up-regulation on B-cell lymphocytes (CD20+) stimulated with anti-human IgM. As to the kind of experiment: B Cell CD69 Up-Regulation Assay in Human Whole Blood. It counts as cell-based. The following applies: read-out: Human whole blood IC50. How it is done: B Cell CD69 Up-Regulation Assay in Human Whole Blood
Human Blood was collected from healthy volunteers into Vacutainers (BD Biosciences, San Jose, Calif.) containing sodium heparin. Test compound was suspended in DMSO and nine half-log serial dilutions were made. The concentration of […] in the assay was 0.5%. 100 μL whole blood was pre-incubated with compound for 30 min and then stimulated with goat F(ab′)2 anti-human IgM (50 μg/mL, Southern Biotech) for 20 h. At the end of the 20 hour incubation, samples were incubated with fluorochrome-conjugated antibodies, PE mouse anti-human CD20 and APC Mouse anti-human CD69 (BD Biosciences), for 30 minutes. Samples were then lysed with Lyse solution (BD) and washed with PBS containing 2% fetal bovine serum (FBS). Fluorescent signals were acquired on flow cytometer LSR II (BD) and data were analyzed by Flow Jo. The percentage of activated (CD69hi) B-cell lymphocytes (CD20+) were determined using un-stimulated (negative control) and stimulated (positive control) wells as reference guidelines. The percentage inhibition was calculated and an IC50 curve was constructed using GraphPad Prism software with sigmoidal curve fitting.

The mark [3] stands for this setting: human whole blood, anti-IgM stimulation 20 h, CD69hi CD20+ B cells.

Like-named read-outs stand apart in the source and are kept apart here.

With `CC(C)Oc1cccc(Nc2cc(NCCN)nnc2C(N)=O)n1` [Compound I-33, 6-(2-aminoethylamino)-4-(6-isopropoxypyridin-2-ylamino)pyridazine-3-carboxamide], the IC50 in experiment [1] turned out to be 12.4 nM; in experiment [2] (setting [3]) it was 566 nM.
`Cc1ccc(Nc2cc(NCCN)nnc2C(N)=O)nc1N(C)C` [Compound I-27, 6-(2-aminoethylamino)-4-(6-(dimethylamino)-5-methylpyridin-2-ylamino)pyridazine-3-carboxamide]: the IC50 in experiment [2] (setting [3]) was 287 nM.
As to `CC(C)(C)c1cccc(Nc2cc(NCCN)nnc2C(N)=O)n1` [Compound I-16, 6-(2-aminoethylamino)-4-(6-tert-butylpyridin-2-ylamino)pyridazine-3-carboxamide], the IC50 turned out to be 13 nM in experiment [1] and 603 nM in experiment [2] (setting [3]).
Take `Cc1cccc(Nc2cc(Oc3ccccc3C)nnc2C(N)=O)n1` [Compound I-8, 4-(6-methylpyridin-2-ylamino)-6-(o-tolyloxy)pyridazine-3-carboxamide]: the IC50 in experiment [1] is 373 nM; in experiment [2] (Homo sapiens, 20 h), > 5000 nM.
Take `Cc1cccc(Nc2cc(Oc3ccccc3C#N)nnc2C(N)=O)n1` [Compound I-6, 6-(2-cyanophenoxy)-4-(6-methylpyridin-2-ylamino)pyridazine-3-carboxamide]: in experiment [1], the IC50 was 385 nM.
On to `COc1nc(Nc2cc(NCCN)nnc2C(N)=O)ccc1C(C)C` [Compound I-31, 6-(2-aminoethylamino)-4-(5-isopropyl-6-methoxypyridin-2-ylamino)pyridazine-3-carboxamide], for which the IC50 in experiment [1] was found to be 9.25 nM; in experiment [2] (setting [3]) it was 1500 nM.
As to `Cc1ccc(Nc2cc(OCCN)nnc2C(N)=O)nc1C` [Compound I-13, 6-(2-aminoethoxy)-4-(5,6-dimethylpyridin-2-ylamino)pyridazine-3-carboxamide], in experiment [2] (setting [3]), the IC50 was > 50000 nM.
For the compound `COC(C)(C)c1cccc(Nc2cc(NCCN)nnc2C(N)=O)n1` [Compound I-29, 6-(2-aminoethylamino)-4-(6-(2-methoxypropan-2-yl)pyridin-2-ylamino)pyridazine-3-carboxamide], in experiment [2] (setting [3]), the IC50 was found to be 1800 nM.
For the compound `Cc1cccc(Nc2cc(Oc3cccc(C(C)(C)N)c3)nnc2C(N)=O)n1` [Compound I-3, 6-(3-(2-aminopropan-2-yl)phenoxy)-4-(6-methylpyridin-2-ylamino)pyridazine-3-carboxamide], the IC50 in experiment [1] is 2240 nM.
`Cc1ccc(Nc2cc(NC(CN)CC(C)C)nnc2C(N)=O)nc1C(C)C` (stereo not shown) [Compound I-15, 6-(1-aminomethyl-3-methyl-butylamino)-4-(6-isopropyl-5-methyl-pyridin-2-ylamino)-pyridazine-3-carboxylic acid amide]: the IC50 in experiment [1] stood at 2 nM; in experiment [2] (setting [3]), 931 nM.
With `NCCNc1cc(Nc2cccc(C(F)(F)F)n2)c(C(N)=O)nn1` [Compound I-25, 6-(2-aminoethylamino)-4-(6-(trifluoromethyl)pyridin-2-ylamino)pyridazine-3-carboxamide], the IC50 in experiment [2] (setting [3]) is 52 nM.
The same measure, in the same setting: with `CC(C)(O)c1cccc(Nc2cc(NCCN)nnc2C(N)=O)n1` [Compound I-23, 6-(2-aminoethylamino)-4-(6-(2-hydroxypropan-2-yl)pyridin-2-ylamino)pyridazine-3-carboxamide] the figure was 2060 nM.
Same read-out and setting: with `CC(C)(C#N)c1cccc(Nc2cc(NCCN)nnc2C(N)=O)n1` [Compound I-21, 6-(2-aminoethylamino)-4-(6-(2-cyanopropan-2-yl)pyridin-2-ylamino)pyridazine-3-carboxamide] the figure was 573 nM.
Take `Cc1cccc(Nc2cc(Oc3ccc(Cl)cc3C#N)nnc2C(N)=O)n1` [Compound I-9, 6-(4-chloro-2-cyanophenoxy)-4-(6-methylpyridin-2-ylamino)pyridazine-3-carboxamide]: in experiment [1], the IC50 was 1410 nM.
In the case of `Cc1cc(C)cc(Nc2cc(Cl)nnc2C(N)=O)c1` [Compound I-14, 6-chloro-4-(3,5-dimethylphenylamino)pyridazine-3-carboxamide], the IC50 in experiment [1] is 124 nM; in experiment [2] (setting [3]), > 50000 nM.
The like results for `Cc1cc(C)nc(Nc2cc(NCCN)nnc2C(N)=O)n1` [Compound I-24, 6-(2-aminoethylamino)-4-(4,6-dimethylpyrimidin-2-ylamino)pyridazine-3-carboxamide] were, in that order, 3980 nM and > 5000 nM.
Turning to `Cc1cccc(Nc2cc(Oc3ccccc3)nnc2C(N)=O)n1` [Compound I-1, 4-(6-methylpyridin-2-ylamino)-6-phenoxypyridazine-3-carboxamide], in experiment [1], the IC50 was determined as 1320 nM.
Same read-out and setting: the value for `Cc1cccc(Nc2cc(Oc3cccnc3)nnc2C(N)=O)n1` [Compound I-5, 4-(6-methylpyridin-2-ylamino)-6-(pyridin-3-yloxy)pyridazine-3-carboxamide] was 1500 nM.
On to `CC(C)(C)c1cccc(Nc2cc(NCC3(N)CC3)nnc2C(N)=O)n1` [Compound I-19, 6-((1-aminocyclopropyl)methylamino)-4-(6-tert-butylpyridin-2-ylamino)pyridazine-3-carboxamide], for which the IC50 in experiment [1] was 135 nM; in experiment [2] (setting [3]), 6020 nM.
The like results for `Cc1cccc(Nc2cc(N[C@@H]3CCCC[C@@H]3N)ccc2C(N)=O)n1` [Compound I-30, 4-((1R,2S)-2-amino-cyclohexylamino)-2-(6-methyl-pyridin-2-ylamino)-benzamide] were, in that order, 41.8 nM and 548 nM.
Turning to `Cc1cccc(Nc2cc(Oc3ccccc3C3CC3)nnc2C(N)=O)n1` [Compound I-10, 6-(2-cyclopropylphenoxy)-4-(6-methylpyridin-2-ylamino)pyridazine-3-carboxamide], the IC50 in experiment [1] worked out at 2180 nM.
Same read-out and setting: the value for `Cc1cccc(Nc2cc(Oc3cccc(C#N)c3)nnc2C(N)=O)n1` [Compound I-2, 6-(3-cyanophenoxy)-4-(6-methylpyridin-2-ylamino)pyridazine-3-carboxamide] was 965 nM.
As for `CC(C)(C)c1nccc(Nc2cc(NCCN)nnc2C(N)=O)n1` [Compound I-28, 6-(2-aminoethylamino)-4-(2-tert-butylpyrimidin-4-ylamino)pyridazine-3-carboxamide], the IC50 in experiment [2] (setting [3]) amounted to 358 nM.
Regarding `CCc1ccccc1Oc1cc(Nc2cccc(C)n2)c(C(N)=O)nn1` [Compound I-7, 6-(2-ethylphenoxy)-4-(6-methylpyridin-2-ylamino)pyridazine-3-carboxamide], in experiment [1], the IC50 was 473 nM.
On to `NC(=O)c1n[nH]c(=O)cc1Nc1cccc(C2CC2)n1` [Compound I-11, 4-(6-cyclopropyl-pyridin-2-ylamino)-6-oxo-1,6-dihydro-pyridazine-3-carboxylic acid amide], for which the IC50 is 225 nM in experiment [1] and > 5000 nM in experiment [2] (setting [3]).
The like results for `Cc1cccc(Nc2nc(CCCN)ncc2C(N)=O)c1` [Compound I-22, 2-(3-amino-propyl)-4-m-tolylamino-pyrimidine-5-carboxylic acid amide] were, in that order, 2540 nM and > 5000 nM.
